Results as given in ChEMBL document CHEMBL1130487, “Development of a positron emission tomography radiopharmaceutical for imaging thymidine kinase gene expression: Synthesis and in vitro evaluation of 9-{3-[18F] Fluoro-1-hydroxy-2-propoxymethyl guanine” (1997).

Tests used:
Rattus norvegicus [1] = organism: Rattus norvegicus; assay: Inhibition of cell growth by compound at a concentration of 10 uM in 9Ltk+ cells; […]; type: functional, cell-based
Rattus norvegicus [2] = organism: Rattus norvegicus; assay: Anti proliferation activity determined; Weak effect; type: functional
Rattus norvegicus [3] = organism: Rattus norvegicus; assay: Inhibition of cell growth by compound at a concentration of 100 uM in 9Ltk+ cells; Completely stopped the process; type: functional, cell-based
[4] = Inhibition of cell growth by compound at a concentration of 10 uM in 9Ltk+ cells; type: functional; conditions: Rattus norvegicus

For Nc1nc2c(ncn2COC(CO)CO)c(=O)[nH]1, which inhibition (Rattus norvegicus [1]) is on record?
Its inhibition is “Completely stopped the process”.

And the Activity (Rattus norvegicus [2])?
Its Activity is “Weak effect”.

For Nc1nc2c(ncn2COCCO)c(=O)[nH]1, which inhibition (Rattus norvegicus [3]) is on record?
Its inhibition is “Completely stopped the process”.

Which inhibition at 10 µM [4] does the source give for Nc1nc(O)c2ncn(COC(CO)CF)c2n1 (centres undefined) here?
The inhibition at 10 µM was 50%.
